In the supplement of paper PMC10307832:

How the values were obtained:
Test in all cases: relative viability (nuclei count vs DMSO), 5 days (fraction); higher = more cells survive
A-427 = test system: A-427
How it was run: (§1)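 Medians of duplicate plates are given as relative viability. That measure is the nuclei count in treated wells divided by the count in vehicle wells. Counts were taken on 4× images of lung cancer cell lines in 1536-well plates, 5 days after pin-tool dosing the day after seeding with one drug alone or a fixed anchor-drug dose plus five library-drug doses (not always all listed) in √10 steps.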

NCI-H1915 = test system: NCI-H1915
How it was run: as §1

HARA = test system: HARA
How it was run: as §1

NCI-H2405 = test system: NCI-H2405
How it was run: as §1

NCI-H1993 = test system: NCI-H1993
How it was run: as §1

RERF-LC-KJ = test system: RERF-LC-KJ
How it was run: as §1

NCI-H838 = test system: NCI-H838
How it was run: as §1

LOU-NH91 = test system: LOU-NH91
How it was run: as §1

LU99A = test system: LU99A
How it was run: as §1

NCI-H1975 = test system: NCI-H1975
How it was run: as §1

COR-L23 = test system: COR-L23
How it was run: as §1

SW 1573 = test system: SW 1573
How it was run: as §1

NCI-H1666 = test system: NCI-H1666
How it was run: as §1

NCI-H1650 = test system: NCI-H1650
How it was run: as §1

BEN = test system: BEN
How it was run: as §1

NCI-H2228 = test system: NCI-H2228
How it was run: as §1

NCI-H1793 = test system: NCI-H1793
How it was run: as §1

EKVX = test system: EKVX
How it was run: as §1

NCI-H2023 = test system: NCI-H2023
How it was run: as §1

NCI-H650 = test system: NCI-H650
How it was run: as §1

NCI-H460 = test system: NCI-H460
How it was run: as §1

NCI-H1395 = test system: NCI-H1395
How it was run: as §1

Structure (SMILES): COCC1(CO)C(=O)C2CCN1CC2 (stereo not given) [PRIMA-1MET] + CS(=O)(=O)N1CCN(Cc2cc3nc(-c4cccc5[nH]ncc45)nc(N4CCOCC4)c3s2)CC1 [Pictilisib] (partner 1 µM)
- relative viability (A-427; first compound 0.2 µM): 0.255
- relative viability (A-427; first compound 0.6325 µM): 0.53
- relative viability (A-427; first compound 2 µM): 0.528
- relative viability (A-427; first compound 6.325 µM): 0.378
- relative viability (A-427; first compound 20 µM): 0.622
- relative viability (NCI-H1915; first compound 0.2 µM): 0.712
- relative viability (NCI-H1915; first compound 0.6325 µM): 0.785
- relative viability (NCI-H1915; first compound 2 µM): 0.625
- relative viability (NCI-H1915; first compound 6.325 µM): 0.705
- relative viability (NCI-H1915; first compound 20 µM): 0.932
- relative viability (HARA; first compound 0.2 µM): 0.374
- relative viability (HARA; first compound 0.6325 µM): 0.417
- relative viability (HARA; first compound 6.325 µM): 0.446
- relative viability (HARA; first compound 20 µM): 0.403
- relative viability (NCI-H2405; first compound 0.2 µM): 0.278
- relative viability (NCI-H2405; first compound 0.6325 µM): 0.497
- relative viability (NCI-H2405; first compound 6.325 µM): 0.359
- relative viability (NCI-H2405; first compound 20 µM): 0.0865
- relative viability (NCI-H1993; first compound 0.2 µM): 0.949
- relative viability (NCI-H1993; first compound 0.6325 µM): 0.797
- relative viability (NCI-H1993; first compound 2 µM): 0.732
- relative viability (NCI-H1993; first compound 6.325 µM): 0.873
- relative viability (NCI-H1993; first compound 20 µM): 0.854
- relative viability (RERF-LC-KJ; first compound 0.2 µM): 0.538
- relative viability (RERF-LC-KJ; first compound 0.6325 µM): 0.595
- relative viability (RERF-LC-KJ; first compound 2 µM): 0.64
- relative viability (RERF-LC-KJ; first compound 6.325 µM): 0.623
- relative viability (RERF-LC-KJ; first compound 20 µM): 0.624
- relative viability (NCI-H838; first compound 0.2 µM): 0.46
- relative viability (NCI-H838; first compound 0.6325 µM): 0.448
- relative viability (NCI-H838; first compound 2 µM): 0.355
- relative viability (NCI-H838; first compound 6.325 µM): 0.589
- relative viability (NCI-H838; first compound 20 µM): 0.632
- relative viability (LOU-NH91; first compound 0.2 µM): 0.573
- relative viability (LOU-NH91; first compound 0.6325 µM): 0.474
- relative viability (LOU-NH91; first compound 2 µM): 0.458
- relative viability (LOU-NH91; first compound 6.325 µM): 0.467
- relative viability (LOU-NH91; first compound 20 µM): 0.366
- relative viability (LU99A; first compound 0.2 µM): 0.414
- relative viability (LU99A; first compound 0.6325 µM): 0.323
- relative viability (LU99A; first compound 2 µM): 0.386
- relative viability (LU99A; first compound 6.325 µM): 0.308
- relative viability (LU99A; first compound 20 µM): 0.154
- relative viability (NCI-H1975; first compound 0.2 µM): 0.294
- relative viability (NCI-H1975; first compound 0.6325 µM): 0.291
- relative viability (NCI-H1975; first compound 2 µM): 0.27
- relative viability (NCI-H1975; first compound 6.325 µM): 0.311
- relative viability (NCI-H1975; first compound 20 µM): 0.248
- relative viability (COR-L23; first compound 0.2 µM): 0.77
- relative viability (COR-L23; first compound 0.6325 µM): 0.76
- relative viability (COR-L23; first compound 2 µM): 0.765
- relative viability (COR-L23; first compound 6.325 µM): 0.786
- relative viability (COR-L23; first compound 20 µM): 0.0196
- relative viability (SW 1573; first compound 0.2 µM): 0.463
- relative viability (SW 1573; first compound 0.6325 µM): 0.409
- relative viability (SW 1573; first compound 2 µM): 0.45
- relative viability (SW 1573; first compound 6.325 µM): 0.0446
- relative viability (SW 1573; first compound 20 µM): 0.0283
- relative viability (NCI-H1666; first compound 0.2 µM): 0.494
- relative viability (NCI-H1666; first compound 0.6325 µM): 0.335
- relative viability (NCI-H1666; first compound 2 µM): 0.54
- relative viability (NCI-H1666; first compound 6.325 µM): 0.415
- relative viability (NCI-H1666; first compound 20 µM): 0.198
- relative viability (NCI-H1650; first compound 0.2 µM): 0.618
- relative viability (NCI-H1650; first compound 0.6325 µM): 0.483
- relative viability (NCI-H1650; first compound 2 µM): 0.311
- relative viability (NCI-H1650; first compound 6.325 µM): 0.527
- relative viability (NCI-H1650; first compound 20 µM): 0.209
- relative viability (BEN; first compound 0.2 µM): 0.608
- relative viability (BEN; first compound 0.6325 µM): 0.514
- relative viability (BEN; first compound 6.325 µM): 0.521
- relative viability (BEN; first compound 20 µM): 0.464
- relative viability (NCI-H2228; first compound 0.2 µM): 0.421
- relative viability (NCI-H2228; first compound 0.6325 µM): 0.343
- relative viability (NCI-H2228; first compound 2 µM): 0.358
- relative viability (NCI-H2228; first compound 6.325 µM): 0.19
- relative viability (NCI-H2228; first compound 20 µM): 0.0615
- relative viability (NCI-H1793; first compound 0.2 µM): 0.372
- relative viability (NCI-H1793; first compound 0.6325 µM): 0.251
- relative viability (NCI-H1793; first compound 6.325 µM): 0.343
- relative viability (NCI-H1793; first compound 20 µM): 0.325
- relative viability (EKVX; first compound 0.2 µM): 0.475
- relative viability (EKVX; first compound 0.6325 µM): 0.458
- relative viability (EKVX; first compound 2 µM): 0.328
- relative viability (EKVX; first compound 6.325 µM): 0.489
- relative viability (EKVX; first compound 20 µM): 0.356
- relative viability (NCI-H2023; first compound 0.2 µM): 0.205
- relative viability (NCI-H2023; first compound 0.6325 µM): 0.196
- relative viability (NCI-H2023; first compound 2 µM): 0.222
- relative viability (NCI-H2023; first compound 6.325 µM): 0.229
- relative viability (NCI-H2023; first compound 20 µM): 0.221
- relative viability (NCI-H650; first compound 0.2 µM): 1.14
- relative viability (NCI-H650; first compound 2 µM): 0.867
- relative viability (NCI-H650; first compound 6.325 µM): 1.06
- relative viability (NCI-H650; first compound 20 µM): 0.111
- relative viability (NCI-H460; first compound 0.2 µM): 0.31
- relative viability (NCI-H460; first compound 0.6325 µM): 0.359
- relative viability (NCI-H460; first compound 2 µM): 0.23
- relative viability (NCI-H460; first compound 6.325 µM): 0.357
- relative viability (NCI-H460; first compound 20 µM): 0.197
- relative viability (NCI-H1395; first compound 0.2 µM): 0.613
- relative viability (NCI-H1395; first compound 0.6325 µM): 0.458
- relative viability (NCI-H1395; first compound 2 µM): 0.602
- relative viability (NCI-H1395; first compound 6.325 µM): 0.518
- relative viability (NCI-H1395; first compound 20 µM): 0.383
